Structures can show the parent of a compound that is named as a salt. Where only a bound is given, the exact number is not on record here.

The test system of assay [1] is L6-myotubes. Put plainly: Glucose uptake (3H-2-deoxyglucose) in differentiated L6-myotubes. Format: cell-based. To be noted: agonist final concentration 1×10^−5 M, 3H-2-deoxyglucose uptake, read-out: Biological example 1: glucose uptake, activity compared to that of isoproterenol. The protocol:
(§1) L6-myoblasts were grown in Dulbecco's Modified Eagle's Medium (DMEM) containing 1 g/L glucose supplemented with 10% fetal bovine serum, 2 mM L-Glutamine, 50 U/mL penicillin, 50 μg/mL streptomycin and 10 mM HEPES. Cells were plated at 1×10^5 cells per mL in 24-well plates. After reaching 90% confluence the cells were grown in medium containing 2% FBS for 7 days where upon cells differentiated into myotubes.
Differentiated L6-myotubes were serum-starved overnight in medium containing 0.5% fatty-acid free BSA and stimulated with an agonist, with a final concentration of 1×10^−5 M. After 1 h 40 min the cells were washed with warm glucose free medium or PBS twice and another portion of agonist was added to the glucose free medium. After 20 min the cells were exposed to 50 nM ^3H-2-deoxyglucose for another 10 min before washed in ice cold glucose free medium or PBS three times and lysed in 400 μL/well 0.2 M NaOH for 1 h at 60° C. The cell lysate was mixed with 4 mL scintillation buffer (Emulsifier Safe, Perkin Elmer) and the radioactivity was detected in a β-counter (Tri-Carb 4810TR, Perkin Elmer). The activity for each compound is compared to that of isoproterenol.

Assay [2] concerns L6-myotubes. The assay is described as follows: Measurement of intracellular cAMP levels in differentiated L6 cells. Particulars: Rattus norvegicus, 0.25 h, agonist final concentration 1×10^−5 M, 15 min, alpha screen cAMP kit, read-out: Biological example 2: intracellular cAMP levels, activity compared to that of isoproterenol. Format: cell-based. The protocol:
as §1
Differentiated cells were serum-starved overnight and stimulated with an agonist, final concentration 1×10^−5 M, for 15 min in stimulation buffer (HBSS supplemented with 1% BSA, 5 mM HEPES and 1 mM IBMX, pH 7.4). The medium was aspirated and 100 μL of 95% EtOH was added to each well of the 24-well plate and cells were kept at −20° C. overnight. The EtOH was allowed to evaporate and 500 μL of lysis buffer (1% BSA, 5 mM HEPES and 0.3% Tween-20, pH 7.4) was added to each well. The plate was kept at −80° C. for 30 min and then at −20° C. until the day of detection when the samples were thawed. Intracellular cAMP levels were detected using an alpha screen cAMP kit (6760635D from Perkin Elmer). The activity for each compound is compared to that of isoproterenol.
In general terms: Cyclic AMP is a second messenger, typically raised through Gs and lowered through Gi signalling.

As for `CC1(NC[C@H](O)c2cccc(F)c2)CCN(S(=O)(=O)CC(=O)O)CC1` [Example 22, (R)-2-((4-((2-(3-Fluorophenyl)-2-hydroxyethyl)amino)-4-methyl-piperidin-1-yl)sulfonyl)acetic acid], the Emax at 10 µM in the assay on L6-myotubes [1] was > 75%; in the assay on L6-myotubes [2], < 25%.
Take `CN(C)C(=O)N1CCC(C)(NC[C@H](O)c2cccc(F)c2)CC1` [Example 24, (R)-4-((2-(3-Fluorophenyl)-2-hydroxyethyl)amino)-N,N,4-trimethyl-piperidine-1-carboxamide acetate]: the Emax at 10 µM in the assay on L6-myotubes [1] is > 75%.
Consider `CC(=O)N[C@H]1CC[C@@H](NC[C@H](O)c2cncc(F)c2)CC1` [Example 12, N-((cis)-4-(((R)-2-(5-Fluoropyridin-3-yl)-2-hydroxyethyl)amino)-cyclohexyl)acetamide], for which the Emax at 10 µM was > 75% in the assay on L6-myotubes [1] and < 25% with L6-myotubes [2].
On the same counts, the results for `CS(=O)(=O)N[C@H]1CC[C@H](NC[C@H](O)c2cncc(F)c2)CC1` [Example 18, N-((trans)-4-(((R)-2-(5-fluoropyridin-3-yl)-2-hydroxyethyl)amino)-cyclohexyl)methanesulfonamide] are 50 to 75% and < 25%.
Consider `CCCCS(=O)(=O)N1CCC(C)(NC[C@H](O)c2cccc(F)c2)CC1` [Example 23, (R)-2-((1-(Butylsulfonyl)-4-methylpiperidin-4-yl)amino)-1-(3-fluoro-phenyl)ethan-1-ol acetate], for which the values for the Emax at 10 µM in the assay with L6-myotubes [1] and in the assay on L6-myotubes [2] were > 75% and 25 to 50%, respectively.
Regarding `CC(=O)NC(C)(C)C[C@H]1CC[C@@H](NC[C@H](O)c2cccc(F)c2)CC1` [Example 1, N-(1-((cis)-4-(((R)-2-(3-Fluorophenyl)-2-hydroxyethyl)amino)-cyclohexyl)-2-methylpropan-2-yl)acetamide], the figures for the Emax at 10 µM in the assay with L6-myotubes [1] and in the assay with L6-myotubes [2] were 50 to 75% and < 25%, respectively.
For the compound `CC1(NC[C@H](O)c2cncc(F)c2)CCN(S(C)(=O)=O)CC1` [Example 8, (R)-1-(5-Fluoropyridin-3-yl)-2-((4-methyl-1-(methylsulfonyl)piperidin-4-yl)amino)ethan-1-ol dihydrochloride], the Emax at 10 µM with L6-myotubes [1] was > 75%; in the assay with L6-myotubes [2], 25 to 50%.
In the case of `CC1(NC[C@H](O)c2cccc(F)c2)CCN(CC(=O)O)CC1` [Example 20, (R)-2-(4-((2-(3-Fluorophenyl)-2-hydroxyethyl)amino)-4-methyl-piperidin-1-yl)acetic acid acetate], the Emax at 10 µM with L6-myotubes [1] is 50 to 75%; with L6-myotubes [2], < 25%.
`CCOC(=O)CO[C@H]1CC[C@H](NC[C@H](O)c2cccc(F)c2)CC1` [Example 9, Ethyl 2-(((trans)-4-(((R)-2-(3-fluorophenyl)-2-hydroxyethyl)amino)-cyclohexyl)oxy)acetate]: the values for the Emax at 10 µM in the assay with L6-myotubes [1] and in the assay with L6-myotubes [2] were 25 to 50% and < 25%, respectively.
For the compound `CC(C)(C[C@H]1CC[C@@H](NC[C@H](O)c2cncc(F)c2)CC1)NS(C)(=O)=O` [Example 4, N-(1-((cis)-4-(((R)-2-(5-Fluoropyridin-3-yl)-2-hydroxyethyl)amino)-cyclohexyl)-2-methylpropan-2-yl)methanesulfonamide], the Emax at 10 µM is 50 to 75% with L6-myotubes [1] and < 25% in the assay on L6-myotubes [2].
Consider `CC(=O)N[C@H]1CC[C@@H](NC[C@H](O)c2cccc(F)c2)CC1` [Example 11, N-((cis)-4-(((R)-2-(3-fluorophenyl)-2-hydroxyethyl)amino)-cyclohexyl)acetamide], for which the Emax at 10 µM with L6-myotubes [1] is 50 to 75%; with L6-myotubes [2], < 25%.
Consider `O=C(O)CO[C@H]1CC[C@H](NC[C@H](O)c2cccc(F)c2)CC1` [Example 10, 2-(((trans)-4-(((R)-2-(3-Fluorophenyl)-2-hydroxyethyl)amino)-cyclohexyl)oxy)acetic acid], for which the Emax at 10 µM was 25 to 50% in the assay on L6-myotubes [1] and < 25% with L6-myotubes [2].
As for `CC(=O)N[C@H]1CC[C@H](NC[C@H](O)c2cncc(F)c2)CC1` [Example 16, N-((trans)-4-(((R)-2-(5-Fluoropyridin-3-yl)-2-hydroxyethyl)amino)-cyclohexyl)acetamide], the Emax at 10 µM in the assay with L6-myotubes [1] was 25 to 50%; with L6-myotubes [2], < 25%.
For the compound `CC(=O)N[C@H]1CC[C@H](NC[C@H](O)c2cccc(F)c2)CC1` [Example 15, N-((trans)-4-(((R)-2-(3-Fluorophenyl)-2-hydroxyethyl)amino)-cyclohexyl)acetamide], the Emax at 10 µM is 25 to 50% in the assay on L6-myotubes [1] and < 25% in the assay on L6-myotubes [2].
Taken in the same sequence, the figures for `CC(C)(C[C@H]1CC[C@@H](NC[C@H](O)c2cccc(F)c2)CC1)NS(C)(=O)=O` [Example 2, N-(1-((cis)-4-(((R)-2-(3-fluorophenyl)-2-hydroxyethyl)amino)-cyclohexyl)-2-methylpropan-2-yl)methanesulfonamide] were < 25% and < 25%.
With `CS(=O)(=O)N[C@H]1CC[C@@H](NC[C@H](O)c2cccc(F)c2)CC1` [Example 13, N-((cis)-4-(((R)-2-(3-Fluorophenyl)-2-hydroxyethyl)amino)cyclohexyl)-methanesulfonamide hydrochloride], the figures for the Emax at 10 µM in the assay with L6-myotubes [1] and in the assay on L6-myotubes [2] were 50 to 75% and < 25%, respectively.
As for `CC(=O)N1CCC(C)(NC[C@H](O)c2cccc(F)c2)CC1` [Example 5, (R)-1-(4-((2-(3-Fluorophenyl)-2-hydroxyethyl)amino)-4-methyl-piperidin-1-yl)ethan-1-one], the Emax at 10 µM in the assay with L6-myotubes [1] is 25 to 50%; with L6-myotubes [2], < 25%.
Turning to `CS(=O)(=O)N[C@H]1CC[C@H](NC[C@H](O)c2cccc(F)c2)CC1` [Example 17, N-((trans)-4-(((R)-2-(3-Fluorophenyl)-2-hydroxyethyl)amino)-cyclohexyl)methanesulfonamide], the figures for the Emax at 10 µM in the assay on L6-myotubes [1] and with L6-myotubes [2] were 50 to 75% and < 25%, respectively.
On to `CC(=O)N1CCC(C)(NC[C@H](O)c2cncc(F)c2)CC1` [Example 7, (R)-1-(4-((2-(5-Fluoropyridin-3-yl)-2-hydroxyethyl)amino)-4-methyl-piperidin-1-yl)ethan-1-one], for which the Emax at 10 µM with L6-myotubes [1] is 50 to 75%; in the assay with L6-myotubes [2] it was < 25%.
With `COC(=O)CN1CCC(C)(NC[C@H](O)c2cccc(F)c2)CC1` [Example 19, Methyl (R)-2-(4-((2-(3-fluorophenyl)-2-hydroxyethyl)amino)-4-methyl-piperidin-1-yl)acetate dihydrochloride], the Emax at 10 µM with L6-myotubes [1] and in the assay on L6-myotubes [2] was > 75% in each case.
Consider `COC(=O)CS(=O)(=O)N1CCC(C)(NC[C@H](O)c2cccc(F)c2)CC1` [Example 21, Methyl (R)-2-((4-((2-(3-fluorophenyl)-2-hydroxyethyl)amino)-4-methylpiperidin-1-yl)sulfonyl)acetate hydrochloride], for which the values for the Emax at 10 µM in the assay with L6-myotubes [1] and in the assay with L6-myotubes [2] were > 75% and 25 to 50%, respectively.
As for `CC(=O)NC(C)(C)C[C@H]1CC[C@@H](NC[C@H](O)c2cncc(F)c2)CC1` [Example 3, N-(1-((cis)-4-(((R)-2-(5-Fluoropyridin-3-yl)-2-hydroxyethyl)amino)-cyclohexyl)-2-methylpropan-2-yl)acetamide], the figures for the Emax at 10 µM with L6-myotubes [1] and in the assay with L6-myotubes [2] were > 75% and < 25%, respectively.
On to `CC1(NC[C@H](O)c2cccc(F)c2)CCN(S(C)(=O)=O)CC1` [Example 6, (R)-1-(3-Fluorophenyl)-2-((4-methyl-1-(methylsulfonyl)piperidin-4-yl)-amino)ethan-1-ol], for which the Emax at 10 µM in the assay with L6-myotubes [1] is > 75%; in the assay on L6-myotubes [2], < 25%.
Taken in the same sequence, the figures for `CS(=O)(=O)N[C@H]1CC[C@@H](NC[C@H](O)c2cncc(F)c2)CC1` [Example 14, N-((cis)-4-(((R)-2-(5-Fluoropyridin-3-yl)-2-hydroxyethyl)amino)-cyclohexyl)methanesulfonamide] were > 75% and < 25%.

Values taken from patent US20260274785A1, “CYCLOHEXYL OR HETEROCYCLOALKYL BETA-HYDROXY ALKYL AMINES FOR USE IN THE TREATMENT OF HYPERGLYCAEMIA AND DISORDERS CHARACTERISED BY HYPERGLYCAEMIA” (ATROGI AB, priority 2023, published 2026).
